Where two headings read alike, the source gives them in different places.
What was measured:
[1] = cited from earlier work
[2] = cited from earlier work; remark: listed apart in the source
[3] = system: biofilm in a sewerage network; assay: Trial 2: H2S Odalog monitoring, manhole 200 m from Location 2; design: species or system sulphate reducing microbes and methanogenic archaea
biofilm = assay: Biofilm disrupting activity compared with other oxidants
Procedure: Peracetic acid is typically more reactive at higher temperature (5 times more reactive at 35° C. than 15° C.). […] This is believed to be due to the nature and type of radicals formed upon cleavage of the peracetic acid peroxy bond.

[4] = cited from earlier work; remark: listed apart in the source
[5] = 35° C. vs 15° C.; cited from earlier work
Catalase = details: cited from earlier work
[6] = cited from earlier work; remark: listed apart in the source
[7] = Days 67-68, H2O2 330 mg/L after F1 dosing stopped
[8] = standard oxidation potential (at pH 7)

## S [Bisulphide (HS^−), Bisulphide]
[1]; pH 4
  Mole Fraction of Species (%): <1%
[1]; pH 5
  Mole Fraction of Species (%): ~1%
[1]; pH 5.5
  Mole Fraction of Species (%): 3%
[1]; pH 6.0
  Mole Fraction of Species (%): 9%
[1]; pH 6.5
  Mole Fraction of Species (%): 24%
[1]; pH 7.0
  Mole Fraction of Species (%): 50%
[1]; pH 7.5
  Mole Fraction of Species (%): 76%
[1]; pH 8.0
  Mole Fraction of Species (%): 91%
[1]; pH 8.5
  Mole Fraction of Species (%): 97%
[1]; pH 9.0
  Mole Fraction of Species (%): ~99%
[1]; pH 10.0
  Mole Fraction of Species (%): >99%

## [O][Cl+][O-] [Chlorine Dioxide]
[2]; pH 7
  Oxidation Potential: 0.95 eV

## OO [Formulation H2O2, hydrogen peroxide]
[3]; [7]
  Avg. H2S: 0.3 ppm
  Peak H2S: 3 ppm
[3]; Days 69-81, H2O2 330 mg/L
  Avg. H2S: 2.8 ppm
  Peak H2S: 72 ppm
[3]; Days 82-86, H2O2 1,000 mg/L
  Avg. H2S: 3.7 ppm
  Peak H2S: 33 ppm
[2]; [8]
  Oxidation Potential: 1.78 eV

## S [Hydrogen Sulphide (H2S), Hydrogen Sulphide]
[1]; pH 4
  Mole Fraction of Species (%): >99%
[1]; pH 5
  Mole Fraction of Species (%): ~99%
[1]; pH 5.5
  Mole Fraction of Species (%): 97%
[1]; pH 6.0
  Mole Fraction of Species (%): 91%
[1]; pH 6.5
  Mole Fraction of Species (%): 76%
[1]; pH 7.5
  Mole Fraction of Species (%): 24%
[1]; pH 8.0
  Mole Fraction of Species (%): 9%
[1]; pH 8.5
  Mole Fraction of Species (%): 3%
[1]; pH 9.0
  Mole Fraction of Species (%): ~1%
[1]; pH 10.0
  Mole Fraction of Species (%): <1%

## O=[O+][O-] [Ozone]
[2]; pH 7
  Oxidation Potential: 2.07 eV

## CC(=O)OO [Peracetic Acid, peroxyacetic acid]
biofilm; vs hydrogen peroxide
  biofilm disrupting activity compared with hydrogen peroxide: stronger biofilm disrupting activity
biofilm; vs ozone
  biofilm disrupting activity compared with ozone: stronger biofilm disrupting activity
[2]; pH 7
  Oxidation Potential: 1.81 eV
[4]; pH 4
  DT50 (25° C.): 46.7 h
[4]; pH 7
  DT50 (25° C.): 31.7 h
[4]; pH 9
  DT50 (25° C.): 3.6 h
[5]
  reactivity at 35° C. relative to 15° C.: 5 times

## OCl [Sodium Hypochlorite]
[2]; [8]
  Oxidation Potential: 0.94 eV

## CCOO [ethyl hydroperoxide]
Catalase
  binding by catalase: rapidly
  catalysis by catalase: very inefficient

## CCCCCCCCCCCC(=O)OO [peroxydodecanoic]
[6]; pH 7
  solubility in water: very limited solubility

## CCCCCCCCCCCCCCCCCC(=O)OO [peroxyoctadecanoic]
[6]; pH 7
  solubility in water: very limited solubility

## CCCCCCCC(=O)OO [peroxyoctanoic acid]
[6]; (at pH 7)
  solubility in water: slightly soluble
